Read-outs that look alike come from different tables or passages of the source.
Experiments:
[1] = biological target: T1, recombinant human 5-HT4 receptor (Homo sapiens, UniProt Q13639); test: Determination of EC50 values for 5-HT4 receptor (CHO cells, pCRE-Luc reporter); type: cell-based; conditions: for EC50: 4 hours incubation; for Emax: CHO
T1 construct: expressed in transfected cells
How it was run: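 CHO cells stably expressing human 5-HT4 receptor with a CRE-luciferase reporter, serum-starved overnight, then exposed to increasing compound concentrations in OptiMEM for 4 h at 37 °C. Cells lysed and luciferase luminescence plotted against concentration.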

[2] = Rodent pharmacokinetic study; type: in vivo, Male wistar rats; conditions: plasma, Wistar/Male rat; for bioavailability: 3 mg/kg oral vs 1 mg/kg intravenous
Procedure: Male wistar rats (225±25 grams) were used as experimental animals. Three to five animals were housed in each cage. Two days prior to dosing day, male wistar rats (225-250 grams) were anesthetized with isoflurane for surgical placement of jugular vein catheter. Animals were fasted over night before oral dosing (p.o) and food pellets were allowed 2 hours post dosing, whereas during intravenous dosing food and water were provided as ad libitum. Three rats were dosed with compounds of formula (I) (3 mg/kg) orally and intravenously (1 mg/kg).
At each time point blood was collected through jugular vein and immediately replenish with an equivalent volume of normal saline from freely moving rats. Collected blood was transferred into a labeled eppendr off containing 10 μL of heparin as anticoagulant. Typically blood samples were collected as following time points: Pre dose, 0.08 (only i.v.), 0.25, 0.5, 1, 2, 4, 6, 8, and 24 hours post dose (n=3). Blood was centrifuged at 4000 rpm for 10 minutes. Plasma was prepared and stored frozen at −20° C. until analysis. The concentrations of the compounds of formula (I) were quantified in plasma by qualified LC-MS/MS method using suitable extraction technique. The compounds of formula (I) were quantified in the calibration range around 2-2000 ng/mL in plasma. Study samples were analyzed using calibration samples in the batch and quality control samples spread across the batch.
Pharmacokinetic parameters Cmax, Tmax, AUC1, T1/2 and Bioavailability were calculated by non-compartmental model using standard non-coinpartmental model by using WinNonLin 5.0.1 or Phoenix WinNonlin 6.2 version Software package.

[3] = Rodent brain penetration study; type: in vivo, Male Wistar rats; conditions: 3 mg/kg oral (gavage)
Procedure: Male Wistar rats (225±25 grams) were used as experimental animals. Three animals were housed in each cage. Animals were given water and food ad libitum throughout the experiment and maintained on a 12 hours light/dark cycle. Brain penetration was determined in discrete manner in rats. One day prior to dosing day, male wistar rats (225-250 grams) were acclimatized. After acclimatization the rats were grouped according to their weight. In each group, 3 animals were kept in individual cage and allowed free access to food and water. At each time point (0.50, 1, and 2 hours) n=3 animals were used. The compounds of formula (I) were suitably preformulated and administered orally at (free base equivalent) 3 mg/kg. Blood samples were removed via, cardiac puncture by using isoflurane anesthesia. The animals were sacrificed to collect brain tissue. Plasma was separated and brain samples were homogenized and stored frozen at −20° C. until analysis. The concentrations of the compounds of formula (I) in plasma and brain were determined using LC-MS/MS method. The compounds of formula (I) were quantified in plasma and brain homogenate by qualified LC-MS/MS method using suitable extraction technique. The compounds of formula (I) were quantified in the calibration range of 1-500 ng/mL in plasma and brain homogenate. Study samples were analyzed using calibration samples in the batch and quality control samples spread across the batch. Extent of brain-plasma ratio was calculated (Cb/Cp).

Male Wistar rats = test: Object recognition task model; type: in vivo; conditions: dose mg/kg: Ex 1 0.1, Ex 2 0.03, Ex 4 0.03, Ex 13 1, Ex 23 0.01, Ex 37 10, Ex 43 0.3; for Exploration time mean ± S.E.M, Familiar object / Exploration time mean ± S.E.M, Novel object: choice trial T2, p.o.; for Inference: p.o.
Procedure: The cognition enhancing properties of compounds of this invention were estimated by using this model.
Male Wistar rats (230-280 grams) were used as experimental animals. Four animals were housed in each cage. Animals were kept on 20% food deprivation before one day and given water ad libitum throughout the experiment and maintained on a 12 hours light/dark cycle. Also the rats were habituated to individual arenas for 1 hour in the absence of any objects.
One group of 12 rats received vehicle (1 mL/Kg) orally and another set of animals received compound of the formula (I) either orally or i.p., before one hour of the familiar (T1) and choice trial (T2).
The experiment was carried out in a 50×50×50 cm open field made up of acrylic. In the familiarization phase, (T1), the rats were placed individually in the open field for 3 minutes, in which two identical objects (plastic bottles, 12.5 cm height×5.5 cm diameter) covered in yellow masking tape alone (a1 and a2) were positioned in two adjacent corners, 10 cms from the walls. After 24 hours of the (T1) trial for long-term memory test, the same rats were placed in the same arena as they were placed in T1 trial. Choice phase (T2) rats were allowed to explore the open field for 3 minutes in presence of one familiar object (a3) and one novel object (b) (Amber color glass bottle, 12 cm high and 5 cm in diameter). Familiar objects presented similar textures, colors and sizes. During the T1 and T2 trial, explorations of each object (defined as sniffing, licking, chewing or having moving vibrissae whilst directing the nose towards the object at a distance of less than 1 cm) were recorded separately by stopwatch. Sitting on an object was not regarded as exploratory activity, however, it was rarely observed.
T1 is the total time spent exploring the familiar objects (a1+a2).
T2 is the total time spent exploring the familiar object and novel object (a3+b).
The object recognition test was performed as described by Behaviour Brain Research, (1988), 31, 47-59.

[4] = CHO cells, human 5-HT4 receptor, luciferase reporter

T1 sequence (Q13639 whole entry): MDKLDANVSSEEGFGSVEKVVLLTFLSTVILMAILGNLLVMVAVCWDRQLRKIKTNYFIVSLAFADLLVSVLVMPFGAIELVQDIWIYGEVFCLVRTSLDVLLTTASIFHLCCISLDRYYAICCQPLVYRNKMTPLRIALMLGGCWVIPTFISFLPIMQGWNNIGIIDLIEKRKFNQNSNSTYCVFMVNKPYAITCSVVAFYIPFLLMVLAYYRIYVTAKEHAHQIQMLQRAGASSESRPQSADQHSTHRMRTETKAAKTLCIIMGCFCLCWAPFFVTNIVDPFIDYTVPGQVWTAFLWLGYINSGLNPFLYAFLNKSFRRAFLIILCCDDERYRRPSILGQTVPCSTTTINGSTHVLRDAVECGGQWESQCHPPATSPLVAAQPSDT

Compound	EC50 [1, 4] [nM]	Emax ([1]; CHO cells, human 5-HT4 receptor, luciferase reporter, read-out: Emax) [%]	Cmax ([2]; 1 mg/kg intravenous (bolus)) [ng/mL]	Tmax ([2]; 1 mg/kg intravenous (bolus)) [h]	half-life ([2]; 1 mg/kg intravenous (bolus)) [h]	AUC(0-t) ([2]; 3 mg/kg oral (gavage)) [ng·h/mL]	Cmax ([2]; 3 mg/kg oral (gavage)) [ng/mL]	Tmax ([2]; 3 mg/kg oral (gavage)) [h]	half-life ([2]; 3 mg/kg oral (gavage)) [h]	bioavailability [2] [%]	Single dose Brain Penetration (Cb/Cp) ([3]; Wistar/Male rat)	Exploration time mean ± S.E.M, Familiar object (Male Wistar rats) [s]	Exploration time mean ± S.E.M, Novel object (Male Wistar rats) [s]	Inference (Male Wistar rats)	Emax [1] [%]	AUC(0-t) ([2]; 1 mg/kg intravenous (bolus)) [ng·h/mL]	Kp ([3]; male, Wistar, rat, brain, po, 3 mg/kg, read-out: Single dose Brain Penetration (Cb/Cp))
Nc1c(Cl)cc(C(=O)NCC2CCN(CC3CCOCC3)CC2)c2ncccc12.O=C(O)/C=C/C(=O)O [Example 1, 5-Amino-6-chloro-N-{[1-(tetrahydro-2H-pyran-4-ylmethyl)-4-piperidinyl]methyl}quinoline-8-carboxamide hemifumarate]	0.04	76	149 ± 6	0.08	1.9 ± 0.7	240 ± 35	121 ± 25	0.42 ± 0.14	4 ± 1.1	51 ± 5	0.48 ± 0.03	5.94 ± 0.71	16.09 ± 1.75	Active			
Nc1c(Cl)cc(C(=O)NCC2CCN(CC3CCOCC3)CC2)c2ncccc12.O=C(O)C(O)C(O)C(=O)O [Example 13, 5-Amino-6-chloro-N-{[1-(tetrahydro-2H-pyran-4-ylmethyl)-4-piperidinyl]methyl} quinoline-8-carboxamide L(+)-tartarate]	0.09		168 ± 12	0.08	1.5 ± 0.3	235 ± 25	76 ± 3	0.5	1.7 ± 0.3	37 ± 4		8.64 ± 1.33	15.11 ± 1.81	Active	70	211 ± 20	0.41 ± 0.04

Reference: US9790211B2, “5-amino-quinoline-8-carboxamide derivatives as 5-HT4 receptor agonists” (SUVEN LIFE SCIENCES LIMITED, priority 2013, dated 2017)
